Target: T1, Prolyl endopeptidase FAP (Homo sapiens, UniProt Q12884)
T1 sequence (Q12884 whole entry): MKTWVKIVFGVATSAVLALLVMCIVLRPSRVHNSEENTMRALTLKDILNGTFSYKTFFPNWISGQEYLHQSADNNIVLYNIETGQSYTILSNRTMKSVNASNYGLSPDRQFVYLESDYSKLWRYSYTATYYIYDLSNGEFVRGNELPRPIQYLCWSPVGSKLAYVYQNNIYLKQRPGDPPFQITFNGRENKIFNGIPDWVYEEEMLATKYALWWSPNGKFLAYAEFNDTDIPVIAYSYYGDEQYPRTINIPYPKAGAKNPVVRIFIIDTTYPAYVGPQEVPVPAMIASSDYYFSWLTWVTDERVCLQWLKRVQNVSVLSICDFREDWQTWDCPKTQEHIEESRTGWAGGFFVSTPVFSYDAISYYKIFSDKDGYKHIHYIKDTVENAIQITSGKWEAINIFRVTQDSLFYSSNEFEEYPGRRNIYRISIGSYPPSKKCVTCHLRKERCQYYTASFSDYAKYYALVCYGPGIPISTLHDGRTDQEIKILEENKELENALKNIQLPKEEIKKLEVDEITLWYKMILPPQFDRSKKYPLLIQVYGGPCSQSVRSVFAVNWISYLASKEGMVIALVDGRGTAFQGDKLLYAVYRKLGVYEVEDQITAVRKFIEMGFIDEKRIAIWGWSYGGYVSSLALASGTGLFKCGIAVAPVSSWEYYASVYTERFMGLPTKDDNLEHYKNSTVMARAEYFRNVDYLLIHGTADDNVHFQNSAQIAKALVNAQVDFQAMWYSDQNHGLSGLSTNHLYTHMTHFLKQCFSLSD
Assay: In Vitro hFAP Inhibition Assay
Protocol: FAPI-46 was used as positive control. Experiments were performed in triplicate, and the mean fluorescence values were fitted using Graph Pad Prism 9 (equation used: Y=Bottom+(Top−Bottom)/(1+((X^HillSlope)/(IC50^HillSlope)))).

IC50 [nM] | Structure (SMILES)
0.12 | CN(C(=O)CCC(=O)NCCNC(=O)CCC(C(=O)O)[N+]12CC[N+]34CC[N+]5(CC1)CC(=O)[O][Cu]352[O]C(=O)C4)c1ccc2nccc(C(=O)NCC(=O)N3CC(F)(F)C[C@H]3C#N)c2c1 (some centres not stated) [US20240173440, Compound [natCu]Cu-NODAGA-F2]
0.04 | N#C[C@@H]1CC(F)(F)CN1C(=O)CNC(=O)c1ccnc2ccc(NC(=O)CCC(=O)N3CCN(C(=O)CCC(C(=O)O)[N+]45CC[N+]67CC[N+]8(CC4)CC(=O)[O][Cu]685[O]C(=O)C7)CC3)cc12 (some centres not stated) [US20240173440, Compound [natCu]Cu-NODAGA-F3]

Reference: BindingDB's records for patent US20240173440 (Nuclidium, 2024)
